Experimental data as given in patent publication US8198273B2, “Compounds and methods for kinase modulation, and indications therefor” (Plexxikon Inc., priority 2009, dated 2012).

What was measured:
[1] = tested on: SW620 colon adenocarcinoma cells (wild-type B-RAF); experiment: SW620 cell growth inhibition (ATPlite); assay type: cell-based; settings: Homo sapiens, SW-620, 72 h; SW620, 3 days incubation
Method in brief: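 ATPlite luminescence, taken as a cell-number measure, gave IC50 values after a 3-day 37° C, 5% CO2 incubation. Compounds were tested as 8-point threefold titrations, highest final concentration 10 μM, added to cells seeded the day before.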

CYP3A4(BQ) = CYP3A4(BQ) (Homo sapiens, UniProt P08684); experiment: CYP3A4(BQ) inhibition (fluorescent substrate); assay type: in vitro ADME; settings: read-out: Cyp IC50 3A4(BQ)
CYP3A4(BQ), sequence (P08684 whole entry): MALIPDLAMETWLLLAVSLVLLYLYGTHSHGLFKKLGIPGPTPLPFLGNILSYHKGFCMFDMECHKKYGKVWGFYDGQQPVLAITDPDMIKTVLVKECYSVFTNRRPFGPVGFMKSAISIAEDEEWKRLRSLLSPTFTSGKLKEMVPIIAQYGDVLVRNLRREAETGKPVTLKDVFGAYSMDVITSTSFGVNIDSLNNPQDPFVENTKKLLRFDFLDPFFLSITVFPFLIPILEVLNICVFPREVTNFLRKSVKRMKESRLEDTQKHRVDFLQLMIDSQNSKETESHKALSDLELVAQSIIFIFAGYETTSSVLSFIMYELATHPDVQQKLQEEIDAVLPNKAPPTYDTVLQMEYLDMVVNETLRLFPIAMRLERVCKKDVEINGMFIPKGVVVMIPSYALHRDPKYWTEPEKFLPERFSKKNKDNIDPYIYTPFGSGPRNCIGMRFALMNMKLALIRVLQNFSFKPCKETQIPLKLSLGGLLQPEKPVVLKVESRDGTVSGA
Description: CYP (Cytochrome P450) enzymes are the major drug metabolizing enzymes present in the liver. The inhibition of CYP enzyme activity (IC50) for each of CYP1A2, CYP2C19, CYP2C9, CYP2D6, CYP3A4(BFC) and CYP3A4(BQ) is determined for compounds, where inhibition of metabolism of a known substrate leads to a decrease in the fluorescence of the metabolized product. The fluorescence of the product is monitored as a function of compound concentration. Compounds are dissolved in dimethyl sulfoxide to a concentration of 100 mM. These are diluted 1 μL into 82 μL of acetonitrile. […] These are then serially diluted 1:1 (160 μL to 160 μL co-factor mix) for a total of 10 points. A 10 μL aliquot of this final mixture is dispensed into 384 well assay plates and incubated for 10 minutes at 37° C. […] Assay plates are incubated at 37° C. […] The signal versus compound concentration is used to determine the IC50. The enzymes and substrates for this assay are obtained from BD Biosciences.

c-Raf-1 = c-Raf-1 (Homo sapiens, UniProt P04049); experiment: c-Raf-1 biochemical kinase inhibition (AlphaScreen, biotin-MEK1 substrate); settings: 100 μM ATP
c-Raf-1, sequence (P04049 whole entry): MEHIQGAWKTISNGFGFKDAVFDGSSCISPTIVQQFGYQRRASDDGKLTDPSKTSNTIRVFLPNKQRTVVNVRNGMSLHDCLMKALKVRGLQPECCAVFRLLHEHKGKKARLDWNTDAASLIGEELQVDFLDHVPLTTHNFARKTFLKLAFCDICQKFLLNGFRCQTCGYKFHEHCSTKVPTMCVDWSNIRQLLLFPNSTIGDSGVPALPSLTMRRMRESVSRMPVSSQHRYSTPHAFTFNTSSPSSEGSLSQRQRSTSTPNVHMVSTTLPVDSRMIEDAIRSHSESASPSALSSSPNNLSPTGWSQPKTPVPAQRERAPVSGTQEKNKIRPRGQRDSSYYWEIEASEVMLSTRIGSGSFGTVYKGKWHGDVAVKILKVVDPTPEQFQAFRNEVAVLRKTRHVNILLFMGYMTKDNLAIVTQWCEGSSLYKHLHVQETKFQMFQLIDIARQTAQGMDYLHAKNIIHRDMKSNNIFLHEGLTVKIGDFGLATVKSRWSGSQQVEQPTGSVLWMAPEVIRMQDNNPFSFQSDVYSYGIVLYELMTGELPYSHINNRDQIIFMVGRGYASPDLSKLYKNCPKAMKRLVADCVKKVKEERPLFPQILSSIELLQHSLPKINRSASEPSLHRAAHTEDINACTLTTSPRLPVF
Description: Compounds to be tested are diluted in dimethyl sulfoxide to a concentration of 0.1 mM. These are serially diluted 15 μL into 30 μL of dimethyl sulfoxide seven times in 96 well plates for a total of 8 dilution points, and for each dilution point 1 μL is added to a well of an assay plate. […] The reaction is started with addition of 10 μL of 200 μM ATP (i.e. final 100 μM ATP). […] The plates are incubated for 3 hours at room temperature and read on Envision reader (Perkin Elmer). […] The signal vs. compound concentration is used to determine the IC50.

SMILES | IC50 [1] | IC50 (CYP3A4(BQ)) | IC50 (c-Raf-1)
CCCS(=O)(=O)Nc1ccc(F)c(C(=O)c2c[nH]c3ncc(-c4ccc(OC)nc4OC)cc23)c1F [P-2184, Propane-1-sulfonic acid {3-[5-(2,6-dimethoxy-pyridin-3-yl)-1H-pyrrolo[2,3-b]pyridine-3-carbonyl]-2,4-difluoro-phenyl}-amide] |  | > 10 µM | 
CCCS(=O)(=O)Nc1ccc(F)c(C(=O)c2c[nH]c3ncc(-c4ccc(C(=O)NC5CC5)nc4)cc23)c1F [P-2181, 5-{3-[2,6-Difluoro-3-(propane-1-sulfonylamino)-benzoyl]-1H-pyrrolo[2,3-b]pyridin-5-yl}-pyridine-2-carboxylic acid cyclopropylamide] |  | > 10 µM | 
CCCS(=O)(=O)Nc1ccc(F)c(C(=O)c2c[nH]c3ncc(-c4ccc(S(C)(=O)=O)cc4)cc23)c1F [P-2183, Propane-1-sulfonic acid {2,4-difluoro-3-[5-(4-methanesulfonyl-phenyl)-1H-pyrrolo[2,3-b]pyridine-3-carbonyl]-phenyl}-amide] | < 20 µM | > 10 µM | 
CCCS(=O)(=O)Nc1ccc(F)c(C(=O)c2c[nH]c3ncc(-c4cnn(Cc5ccccc5)c4)cc23)c1F [P-2190, Propane-1-sulfonic acid {3-[5-(1-benzyl-1H-pyrazol-4-yl)-1H-pyrrolo[2,3-b]pyridine-3-carbonyl]-2,4-difluoro-phenyl}-amide] | < 10 µM | > 10 µM | 
CCCS(=O)(=O)Nc1ccc(F)c(C(=O)c2c[nH]c3ncc(-c4cnc(OC)nc4OC)cc23)c1F [P-2199, Propane-1-sulfonic acid {3-[5-(2,4-dimethoxy-pyrimidin-5-yl)-1H-pyrrolo[2,3-b]pyridine-3-carbonyl]-2,4-difluoro-phenyl}-amide] |  | > 10 µM | < 0.01 µM
CCCS(=O)(=O)Nc1ccc(F)c(C(=O)c2c[nH]c3ncc(-c4cnc(N5CCOCC5)nc4)cc23)c1F [P-2197, Propane-1-sulfonic acid {2,4-difluoro-3-[5-(2-morpholin-4-yl-pyrimidin-5-yl)-1H-pyrrolo[2,3-b]pyridine-3-carbonyl]-phenyl}-amide] |  | > 10 µM | 
CCCS(=O)(=O)Nc1ccc(F)c(C(=O)c2c[nH]c3ncc(-c4ccc(C(=O)NC)nc4)cc23)c1F [P-2180, 5-{3-[2,6-Difluoro-3-(propane-1-sulfonylamino)-benzoyl]-1H-pyrrolo[2,3-b]pyridin-5-yl}-pyridine-2-carboxylic acid methylamide] |  | > 10 µM | 
CCCS(=O)(=O)Nc1ccc(F)c(C(=O)c2c[nH]c3ncc(-c4cncc(S(C)(=O)=O)c4)cc23)c1F [P-2188, Propane-1-sulfonic acid {2,4-difluoro-3-[5-(5-methanesulfonyl-pyridin-3-yl)-1H-pyrrolo[2,3-b]pyridine-3-carbonyl]-phenyl}-amide] |  | > 10 µM | 
CCCS(=O)(=O)Nc1ccc(F)c(C(=O)c2c[nH]c3ncc(-c4cnn(CCN5CCOCC5)c4)cc23)c1F [P-2177, Propane-1-sulfonic acid (2,4-difluoro-3-{5-[1-(2-morpholin-4-yl-ethyl)-1H-pyrazol-4-yl]-1H-pyrrolo[2,3-b]pyridine-3-carbonyl}-phenyl)-amide] | < 20 µM | > 10 µM | 

Second part, the compound after the results:

IC50 [1] | IC50 (CYP3A4(BQ)) | IC50 (c-Raf-1) | SMILES
> 10 µM | > 10 µM |  | O=C(c1c(F)ccc(NS(=O)(=O)c2cccc(F)c2)c1F)c1c[nH]c2nccc(Cl)c12 [P-2019, N-[3-(4-Chloro-1H-pyrrolo[2,3-b]pyridine-3-carbonyl)-2,4-difluoro-phenyl]-3-fluoro-benzenesulfonamide]
> 10 µM | > 10 µM |  | O=C(c1c(F)ccc(NS(=O)(=O)c2cc(F)ccc2F)c1F)c1c[nH]c2nccc(Cl)c12 [P-2018, N-[3-(4-Chloro-1H-pyrrolo[2,3-b]pyridine-3-carbonyl)-2,4-difluoro-phenyl]-2,5-difluoro-benzenesulfonamide]
> 10 µM | > 10 µM |  | CCCS(=O)(=O)Nc1ccc(F)c(C(=O)c2c[nH]c3ncc(-c4ccnc(F)c4)cc23)c1F [P-2192, Propane-1-sulfonic acid {2,4-difluoro-3-[5-(2-fluoro-pyridin-4-yl)-1H-pyrrolo[2,3-b]pyridine-3-carbonyl]-phenyl}-amide]
> 10 µM | > 10 µM |  | N#Cc1cnc2[nH]cc(C(=O)c3c(F)ccc(NS(=O)(=O)c4ccccc4F)c3F)c2c1 [P-2011, N-[3-(5-Cyano-1H-pyrrolo[2,3-b]pyridine-3-carbonyl)-2,4-difluoro-phenyl]-2-fluoro-benzenesulfonamide]
 | > 10 µM | < 0.01 µM | O=C(c1c(F)ccc(NS(=O)(=O)c2c(F)cccc2F)c1F)c1c[nH]c2ncc(Cl)cc12 [P-2003, N-[3-(5-Chloro-1H-pyrrolo[2,3-b]pyridine-3-carbonyl)-2,4-difluoro-phenyl]-2,6-difluoro-benzenesulfonamide]
> 10 µM | > 10 µM |  | CCCS(=O)(=O)Nc1ccc(F)c(C(=O)c2c[nH]c3ncc(-c4ccc(SC)nc4)cc23)c1F [P-2187, Propane-1-sulfonic acid {2,4-difluoro-3-[5-(6-methylsulfanyl-pyridin-3-yl)-1H-pyrrolo[2,3-b]pyridine-3-carbonyl]-phenyl}-amide]
> 10 µM | > 10 µM |  | COc1cnc2[nH]cc(C(=O)c3c(F)ccc(NS(=O)(=O)c4ccccc4F)c3F)c2c1 [P-2009, N-[2,4-Difluoro-3-(5-methoxy-1H-pyrrolo[2,3-b]pyridine-3-carbonyl)-phenyl]-2-fluoro-benzenesulfonamide]
 | > 10 µM | < 0.01 µM | Cc1cnc2[nH]cc(C(=O)c3c(F)ccc(NS(=O)(=O)c4c(F)cccc4F)c3F)c2c1 [P-2024, N-[2,4-Difluoro-3-(5-methyl-1H-pyrrolo[2,3-b]pyridine-3-carbonyl)-phenyl]-2,6-difluoro-benzenesulfonamide]
 | > 10 µM | < 0.01 µM | CCCS(=O)(=O)Nc1ccc(F)c(C(=O)c2c[nH]c3ncc(-c4ccc(S(N)(=O)=O)cc4)cc23)c1F [P-2194, 4-{3-[2,6-Difluoro-3-(propane-1-sulfonylamino)-benzoyl]-1H-pyrrolo[2,3-b]pyridin-5-yl}-benzenesulfonamide]
> 10 µM | > 10 µM |  | Cc1cnc2[nH]cc(C(=O)c3c(F)ccc(NS(=O)(=O)c4ccccc4F)c3F)c2c1 [P-2014, N-[2,4-Difluoro-3-(5-methyl-1H-pyrrolo[2,3-b]pyridine-3-carbonyl)-phenyl]-2-fluoro-benzenesulfonamide]
> 10 µM | 5 to 10 µM |  | Cc1cnc2[nH]cc(C(=O)c3c(F)ccc(NS(=O)(=O)c4cccc(F)c4)c3F)c2c1 [P-2016, N-[2,4-Difluoro-3-(5-methyl-1H-pyrrolo[2,3-b]pyridine-3-carbonyl)-phenyl]-3-fluoro-benzenesulfonamide]
 | < 5 µM | < 0.01 µM | COc1ccnc2[nH]cc(C(=O)c3c(F)ccc(NS(=O)(=O)c4cccc(F)c4)c3F)c12 [P-2023, N-[2,4-Difluoro-3-(4-methoxy-1H-pyrrolo[2,3-b]pyridine-3-carbonyl)-phenyl]-3-fluoro-benzenesulfonamide]
> 10 µM | > 10 µM |  | O=C(c1c(F)ccc(NS(=O)(=O)c2ccccc2F)c1F)c1c[nH]c2nccc(Cl)c12 [P-2017, N-[3-(4-Chloro-1H-pyrrolo[2,3-b]pyridine-3-carbonyl)-2,4-difluoro-phenyl]-2-fluoro-benzenesulfonamide]
